# “Also recorded” adds a separate entry of the source.
# Tests used:
# Format in all cases: in vivo, rat
# bladder wall = experiment: Bladder volume measurements (bladder wall volume / thickness)
# Description: Bladder volume measurements: Changes in bladder wall thickness in all groups (young, aged, and aged+treatment) were measured by placing displacement markers on the bladder surface (in situ) while volume measurements were recorded. Custom computer algorithms were used to calculate longitudinal, circumferential, and area strain from measurements of surface marker positions.
# AVP receptor V1a = experiment: Western immunoblotting, kidney V1a vasopressin receptor; conditions: aged Fisher 344 rats; 8-AG 5 mg kg/day via drinking water, 1 month
# Description: (§1) Western immunoblotting and transmission electron microscopy: Following these testing paradigms, rats were deeply anesthetized, bladders were removed, and one half of each bladder (using the smooth muscle layer) was homogenized using Lysing Matrix D in a FASTPREP-24™ instrument (MP BIOMEDICALS™, Solon, Ohio) in HBSS (5 mM KCl, 0.3 mM KH2PO4, 138 mM NaCl, 4 mM NaHO3, 0.3 mM Na2HCO3, 0.3 mM Na2HPO4, 5.6 mM glucose and 10 mM Hepes, pH 7.4) containing complete protease inhibitor cocktail (1 tablet/10 ml, ROCHE™, Indianapolis, Ind.) and phosphatase inhibitor cocktail (SIGMA®, 1:100). Whole rat kidney was also homogenized using the same procedure. After centrifugation (13000 rpm; 15 min at 4° C.), the membrane protein fraction was prepared by suspending the membrane pellets in lysis buffer containing 0.3 M NaCl, 50 mM Tris-HCl (pH 7.6), 0.5% Triton X-100, and the same concentration of protease inhibitors as above. […] The protein concentrations of the combined supernatants were determined using the PIERCE™ BCA protein assay (THERMO SCIENTIFIC™, Rockford, Ill.). […] As a loading control, total protein per sample was determined using BIO-RAD™ Stain Free SDS-PAGE gel technology. UV-activated protein fluorescence was imaged on a CHEMIDOC™ MP (BIO-RAD™). […] The volume (intensity) of each protein species was determined and normalized to total protein using Image Lab software (BIO-RAD™).
# AVP receptor V2 = experiment: Western immunoblotting, kidney V2 vasopressin receptor; conditions: aged Fisher 344 rats; 8-AG 5 mg kg/day via drinking water, 1 month
# Description: as §1
# mitofusin 2 (MFN2) = experiment: Western immunoblotting, mitofusin 2; conditions: aged rats; oral 8-AG 5 mg/kg/day, 6 weeks
# Description: (§2) Western immunoblotting: One half of each bladder preparation was homogenized using Lysing Matrix D in a FastPrep 24 instrument (MP Biomedicals, Solon, Ohio) in HBSS (5 mM KCl, 0.3 mM KH2PO4, 138 mM NaCl, 4 mM NaHO3, 0.3 mM Na2HCO3, 0.3 mM Na2HPO4, 5.6 mM glucose and 10 mM Hepes, pH 7.4) containing complete protease inhibitor cocktail (1 tablet/10 ml, ROCHE®, Indianapolis, Ind.)) and phosphatase inhibitor cocktail (SIGMA®, 1:100). After centrifugation (13000 rpm; 15 min at 4° C.), the membrane protein fraction was prepared by suspending the membrane pellets in lysis buffer containing 0.3 M NaCl, 50 mM Tris-HCl (pH 7.6) and 0.5% Triton X-100 and the same concentration of protease inhibitors as above. The suspensions were incubated on ice and centrifuged (13000 rpm; 15 min at 4° C.). The protein concentrations of the combined supernatants were determined using the PIERCE® BCA protein assay (THERMO SCIENTIFIC®, Rockford, Ill.). […] As a loading control, total protein per sample was determined using Bio-Rad® Stain Free SDS-PAGE gel technology. UV-activated protein fluorescence was imaged on a CHEMIDOC® MP (BIO-RAD®). […] The volume (intensity) of each protein species was determined and normalized to total protein using Image Lab software (BIO-RAD®).
# nitrotyrosine = experiment: Western immunoblotting, nitrotyrosine; conditions: aged rats; oral 8-AG 5 mg/kg/day, 6 weeks
# Description: as §2
# catalase = experiment: Catalase activity in detrusor smooth muscle; conditions: aged rats; oral 8-AG 5 mg/kg/day, 6 weeks
structure (smiles),measurement,setting,value
"Nc1nc2[nH]c(N)nc2c(=O)[nH]1 [8-AG, 8-Aminoguanine]",bladder wall volume,"bladder wall; aged Fisher 344 rats, 8-AG 5 mg kg/day via drinking water, 1 month",restored to that of a younger state
same,bladder wall width / thickness,"bladder wall; aged rats, oral 8-AG 5 mg/kg/day, 6 weeks",restored to that of a younger state
same,V1a vasopressin receptor in kidney,AVP receptor V1a,restored to a younger state; also recorded: restored to levels similar to the younger state
same,V2 vasopressin receptor in kidney,AVP receptor V2,restored to a younger state; also recorded: restored to levels similar to the younger state
same,mitofusin 2 (MFN2) in bladder mucosa,mitofusin 2 (MFN2),reversed or restored to levels similar to the younger state; also recorded: restored changes similar to a younger state
same,urethral nitrotyrosine,nitrotyrosine,normalized to a younger state
same,catalase activity in detrusor smooth muscle,catalase,levels similar to the younger state; also recorded: restored these biomarkers to that of a younger state

# Source: patent US20220054494A1, “METHODS FOR TREATING BLADDER AND URETHRA DYSFUNCTION AND DISEASE” (University of Pittsburgh - Of the Commonwealth System of …, priority 2019, published 2022)
